In DBAASP:
Converted amounts (≈) assume the structure as drawn. Blank lines part the entries; values can stand above or below the compound they belong to.

Columns and labels:
Test in all cases: ≥ marks a high value that may be exact or a test limit, other limits are often not marked, values filed in µg/mL are converted to µM
[1] = system: Klebsiella pneumoniae ATCC 700603
[2] = system: Bacillus subtilis ATCC 6051
[3] = system: Klebsiella pneumoniae ATCC BAA-2146
[4] = system: Escherichia coli ATCC 25922
[5] = system: Staphylococcus aureus ATCC 43300
Klebsiella pneumoniae = system: Klebsiella pneumoniae
[6] = system: Cryptococcus neoformans ATCC 208821
Pseudomonas aeruginosa = system: Pseudomonas aeruginosa
[7] = system: Acinetobacter baumannii ATCC 19606
[8] = system: Candida albicans ATCC 90028
Acinetobacter baumannii = system: Acinetobacter baumannii
[9] = system: Klebsiella pneumoniae ATCC 13883
[10] = system: Pseudomonas aeruginosa ATCC 27853
[11] = system: Acinetobacter baumannii B2367-12
[12] = system: Enterobacter cloacae B2366-12
[13] = system: Pseudomonas aeruginosa PAO1
[14] = system: Staphylococcus aureus USA 300
[15] = system: Enterococcus faecium ATCC 51559
Candida tropicalis = system: Candida tropicalis
[16] = system: Staphylococcus aureus ATCC 25923
Staphylococcus aureus = system: Staphylococcus aureus
[17] = system: Pseudomonas aeruginosa ATCC 10662
Candida albicans = system: Candida albicans
Candida glabrata = system: Candida glabrata
Vibrio scophthalmi ZS1 = system: Vibrio scophthalmi ZS1
Vibrio litoralis H1 = system: Vibrio litoralis H1
[18] = system: Vibrio vulnificus 1H00066
[19] = system: Vibrio ichthyoenteri 1A00057
[20] = system: Staphylococcus aureus 1D00101
[21] = system: Micrococcus luteus 1D00051
[22] = system: Escherichia coli BL21(DE3)
Escherichia coli C600 = system: Escherichia coli C600
[23] = system: Bacillus subtilis VKM B-886
Escherichia coli ML-35p = system: Escherichia coli ML-35p
[24] = system: Micrococcus luteus VKM B-1314
[25] = system: Bacillus megaterium VKM41
[26] = system: Staphylococcus aureus ATCC 29213
[27] = system: Staphylococcus aureus 209P
[28] = system: Agrobacterium tumefaciens GV3101
Methylobacterium sp. = system: Methylobacterium sp.
Xanthomonas citri = system: Xanthomonas citri
[29] = system: Sinorhizobium meliloti USDA 1002

Structure (SMILES): CC[C@H](C)[C@@H]1NC(=O)CNC(=O)[C@H](CCCN=C(N)N)NC(=O)[C@H](Cc2ccc(O)cc2)NC(=O)[C@@H](NC(=O)[C@@H](NC(=O)[C@H](CCCN=C(N)N)NC(=O)[C@H](Cc2ccccc2)NC(=O)[C@H](CO)NC(=O)[C@H](Cc2c[nH]c3ccccc23)NC(=O)[C@@H](N)CCCCN)C(C)C)CSSC[C@@H](C(=O)N[C@@H](Cc2ccc(O)cc2)C(=O)N[C@@H](CCCN=C(N)N)C(=O)N[C@@H](CCCN=C(N)N)C(=O)N[C@@H](C)C(=O)N[C@@H](CCCN=C(N)N)C(=O)O)NC1=O [KWSFRVCYRGICYRRAR]
- MIC [1]: 0.901 µM (≈ 2 µg/mL)
- MIC [2]: 0.0563 µM (≈ 0.125 µg/mL)
- MIC [3]: 0.45 µM (≈ 0.999 µg/mL)
- MIC [4]: 0.113 µM (≈ 0.25 µg/mL)
- MIC [5]: 1.8 µM (≈ 4 µg/mL)
- MIC (Klebsiella pneumoniae): 7.21 µM (≈ 16 µg/mL)
- MIC [6]: 0.113 µM (≈ 0.25 µg/mL)
- MIC (Pseudomonas aeruginosa): 1.8 µM (≈ 4 µg/mL)
- MIC [7]: 0.113 µM (≈ 0.25 µg/mL)
- MIC [8]: 1.8 µM (≈ 4 µg/mL)
- MIC (Acinetobacter baumannii): 0.113 µM (≈ 0.25 µg/mL)
- MIC [9]: 0.45 µM (≈ 0.999 µg/mL)
- MIC [10]: 0.45 µM (≈ 0.999 µg/mL)

Structure (SMILES): CSCC[C@H](NC(=O)[C@H](CCCN=C(N)N)NC(=O)[C@H](Cc1cnc[nH]1)NC(=O)CNC(=O)[C@H](CCCCN)NC(=O)CNC(=O)[C@H](CCC(N)=O)NC(=O)[C@H](CCCN=C(N)N)NC(=O)[C@H](CCCCN)NC(=O)[C@H](Cc1ccc(O)cc1)NC(=O)[C@H](CCCCN)NC(=O)[C@H](CCCCN)NC(=O)CNC(=O)CNC(=O)[C@H](CCCCN)NC(=O)[C@@H](NC(=O)[C@@H](N)CS)C(C)C)C(=O)N[C@@H](CCCN=C(N)N)C(=O)N[C@@H](CCCN=C(N)N)C(=O)N[C@@H](Cc1ccc(O)cc1)C(=O)N[C@@H](CCCN=C(N)N)C(=O)N[C@@H](CC(N)=O)C(=O)N[C@@H](CC(N)=O)C(=O)N[C@@H](Cc1cnc[nH]1)C(=O)O [CVKGGKKYKRQGKGHRMRRYRNNH]
- MIC (Vibrio scophthalmi ZS1): ≥ 340 µM
- MIC (Vibrio litoralis H1): 11 µM (≈ 32.5 µg/mL)
- MIC [18]: ≥ 170 µM
- MIC [19]: ≥ 85 µM
- MIC [20]: 6 µM (≈ 17.8 µg/mL)
- MIC [21]: 3 µM (≈ 8.88 µg/mL)

Structure (SMILES): CC[C@H](C)[C@H](N)C(=O)N[C@@H](CCCCN)C(=O)N[C@@H](CC(N)=O)C(=O)N[C@@H](C)C(=O)N[C@@H](CCCCN)C(=O)N[C@H](C(=O)N[C@H]1CSSC[C@@H](C(=O)N[C@H](C(=O)N[C@@H](CO)C(=O)N[C@@H](Cc2cnc[nH]2)C(=O)N[C@@H](CCCCN)C(=O)O)C(C)C)NC(=O)[C@H](C(C)C)NC(=O)[C@H](C)NC(=O)[C@H](Cc2ccc(O)cc2)NC(=O)[C@H](C(C)C)NC1=O)C(C)C [IKNAKVCVYAVCVSHK]
- MIC [13]: > 128 µM
- MIC [22]: ≥ 64 µM
- MIC (Escherichia coli C600): ≥ 64 µM
- MIC [23]: 16 µM (≈ 28.2 µg/mL)
- MIC (Escherichia coli ML-35p): ≥ 64 µM
- MIC [24]: 16 µM (≈ 28.2 µg/mL)
- MIC [25]: 16 µM (≈ 28.2 µg/mL)
- MIC (Acinetobacter baumannii): ≥ 64 µM
- MIC [26]: > 128 µM
- MIC [27]: 16 µM (≈ 28.2 µg/mL)

Continued, values first:

- MIC [11]: 8.8 µM (≈ 18.5 µg/mL)
- MIC [12]: 25 µM (≈ 52.5 µg/mL)
- MIC [13]: 100 µM (≈ 210 µg/mL)
- MIC [14]: ≥ 100 µM
- MIC [9]: ≥ 100 µM
- MIC [15]: ≥ 100 µM
Structure (SMILES): CC(C)C[C@H](NC(=O)[C@H](CC(N)=O)NC(=O)[C@H](CCCN=C(N)N)NC(=O)[C@@H](CC(C)C)NC(=O)[C@H](Cc1ccccc1)NC(=O)[C@H](CC(=O)O)NC(=O)[C@H](CCCCN)NC(=O)[C@@H](CC(C)C)NC(=O)[C@H](CCCN=C(N)N)NC(=O)[C@H](CCC(N)=O)NC(=O)[C@@H](NC(=O)[C@@H](CC(C)C)NC(=O)[C@H](CCCN=C(N)N)NC(=O)[C@H](CCCCN)NC(=O)[C@H](Cc1ccccc1)NC(=O)CN)C(C)C)C(=O)N[C@H](C(N)=O)C(C)C [GFKRLVQRLKDFLRNLV]

- MIC (Candida tropicalis): 2.67 µM (≈ 6.62 µg/mL)
- MIC [16]: 1.89 µM (≈ 4.68 µg/mL)
- MIC (Staphylococcus aureus): 1.89 µM (≈ 4.68 µg/mL)
- MIC [17]: 15.1 µM (≈ 37.5 µg/mL)
- MIC (Candida albicans): 2.67 µM (≈ 6.62 µg/mL)
- MIC (Acinetobacter baumannii): 7.27 µM (≈ 18 µg/mL)
- MIC (Candida glabrata): ≥ 60.6 µM
Structure (SMILES): CC[C@H](C)[C@H](NC(=O)[C@H](C)NC(=O)[C@H](CCCCN)NC(=O)[C@H](C)NC(=O)CNC(=O)[C@H](CCCN=C(N)N)NC(=O)[C@H](CC(C)C)NC(=O)[C@H](CC(C)C)NC(=O)[C@H](CO)NC(=O)[C@H](CCCN=C(N)N)NC(=O)[C@H](CC(C)C)NC(=O)[C@@H](N)Cc1ccccc1)C(=O)N[C@@H](Cc1ccc(O)cc1)C(=O)N[C@@H](CCCN=C(N)N)C(=O)NCC(=O)N[C@@H](C)C(=O)N[C@@H](CCCN=C(N)N)C(=O)N[C@@H](C)C(=O)NCC(=O)N[C@@H](Cc1c[nH]c2ccccc12)C(=O)N[C@@H](CCCN=C(N)N)C(=O)NCC(N)=O [FLRSLLRGAKAIYRGARAGWRG]

- MIC [28]: ≥ 64 µM
- MIC (Methylobacterium sp.): ≥ 64 µM
- MIC (Xanthomonas citri): ≥ 32 µM
- MIC [29]: ≥ 64 µM
Structure (SMILES): CC[C@H](C)[C@H](N)C(=O)N[C@@H](CCC(=O)O)C(=O)N[C@H](C(=O)N[C@@H](Cc1ccccc1)C(=O)N[C@@H](CC(C)C)C(=O)N[C@@H](CCCCN)C(=O)N[C@@H](CCC(N)=O)C(=O)N[C@@H](CC(C)C)C(=O)N[C@@H](CCCN=C(N)N)C(=O)N[C@@H](CO)C(=O)N[C@@H](C)C(=O)N[C@@H](C)C(=O)N[C@@H](CC(N)=O)C(=O)N[C@@H](CCCCN)C(=O)N[C@H](C(=O)N[C@H](C(=O)NCC(=O)N[C@@H](CC(C)C)C(=O)O)C(C)C)[C@@H](C)CC)[C@@H](C)O [IETFLKQLRSAANKIVGL]
